Experiments:
stromelysin = test: synovial stromelysin expression in arthritic rats (Northern blot); format: in vivo, rat; conditions: BMOV-treated (with NAC) vs control, Day 18
Protocol: Collagenase, stromelysin, and IL-1 expression were quantitated in each group of rats. Selected rats in each group were sacrificed on Day 18 post arthritis onset to measure collagenase, stromelysin, and IL-1 expression via the Northern Blot. Synovial biopsies were pooled and homogenized in the presence of RNASTAT-60 (Tel Test). Total RNA was isolated following the manufacturer's instructions, washed in 70% ethanol, and dissolved in 30 μl RNA loading buffer (Sigma) containing ethidium bromide. The RNA was electrophoresed on a 1% agarose formaldehyde gel and transferred to 0.45 μm nylon filter membrane (Magna NT, MSL). The blot was prehybridised in 50% formamide, 5×SSPE, 5×dendhardts, 1% SDS, 200 μg/ml ssDNA and 50 μg/ml tRNA. The rat collagenase cDNA (bp. 1-550 of locus RATCOL genbank accession M60616), rat stromelysin (ATCC, Rockville, Md.), or rat […] (genbank accession D00403) were labeled by random primed incorporation of ^32 P-dATP (Random Primed Labeling Kit, Boerhinger Manheim). After overnight hybridization at 42° C. overnight, the blot was washed in 1×SSPE at 37° C. and exposed to Kodak X-Ornat AP film for 24 hours at -70° C. with an intensifying screen. The blot was stripped with 50% formamide in 2×SSPE, checked for residual counts and reprobed. The resulting autoradiographs were digitized and analyzed with NIH image software and normalized for RNA loading.

jun = jun / c-jun mRNA expression in chondrocytes (Northern blot); format: cell-based, bovine; conditions: 100 μM
Excerpt: The cytokine interleukin 1 (IL 1) has been used to identify the intermediate second messengers which regulate the expression of fos and jun.
Although IL 1 stimulated superoxide production, it was not known whether IL 1 induced fos and jun expression was dependent on the production of superoxides. In order to elucidate this possibility, the effect of DPI on fos and jun mRNA levels induced by IL 1 was investigated. RNA from chondrocytes treated with IL 1 in the presence and absence of DPI were analyzed by Northern blot analysis using either fos or collagenase cDNA probes. […] Similar data has been obtained for IL 1 induced jun expression. Furthermore, inhibition of fos and jun expression by DPI was sufficient to suppress IL 1 induced and constitutive collagenase expression.
The effect of orthovanadate and N-acetylcysteine on fos, jun and collagenase expression were examined. Bovine articular chondrocytes were isolated and plated as previously described (Kandel R. A. et al. Biochim. Biophys. Acta. 1053, 130-134, 1990). In order to determine the effect of orthovanadate on IL 1 and PMA (phorbol ester) induced responses, chondrocytes were incubated with orthovanadate (100 μM) for 2 hours before stimulation with IL 1 (10 ng/ml) or PMA ([…]). Collagenase production was determined by incubating chondrocytes for 24 hours with IL 1 or PMA and the cell conditioned medium was assayed for collagenase activity using an ELISA procedure as described previously (Kandel et al. supra). PLA2 activity was measured by incorporating ^3 H-arachidonic acid (^3 H-AA) into the cells and then incubating the cells with medium containing 1 mg/ml BSA, either alone or in the presence of IL 1 or PMA, for 10 min. as previously described (Conquer, J. A. […], Biochim. Biophys. Acta. 1134, 1-6). The amount of ^3 H-AA liberated into the supernatant was determined. […] The supernatant was analyzed by RIA using an antibody specific for PGE2 (Dr. S. A. Jones, Mount Sinai Hospital, Toronto, Canada). […]

A431 = test: MTT cytotoxicity assay, A431; format: cell-based, human; conditions: A431, 72 hours
Protocol: The relative cytotoxicity of various compounds on tumor cell lines was investigated as follows. Cytotoxicity was measured by the MTT microculture tetrazolium colorimetric assay for all cell lines. The relative cytotoxicity of Na3 VO4 and VOSO4 was investigated using the following tumor cell lines: P388(WT) murine leukemia, P388 (ADR) murine leukemia, Lewis murine lung, MCF7 (WT) human breast, […] human lung, K562 human erythroleukemia, A431 human epidermal, LS180 human colon and SK-OV-3 human ovarian. The relative cytotoxicity of doxorubicin, Na3 VO4 and VOSO4 was investigated using the following tumor cell lines: P388(WT) murine leukemia, P388 (ADR) murine leukemia, MCF7(WT) human breast and MCF7 (ADR) human breast. The relative cytotoxicity of BMOV, BEOV and naglivan was investigated using the following tumor cell lines: P388(WT) murine leukemia, P388 (ADR) murine leukemia, Lewis murine lung, H460 human lung, K562 human erythroleukemia, and SK-OV-3 human ovarian.
The cells were plated (number of cells/well was different from cell line to cell depending on the dividing rate) in a 96-well microculture plate 24 hours prior to the delivery of the vanadium compounds. Serial concentrations of solutions of the test compounds (0.05-100 μM) were delivered to the corresponding wells. […] The absorbance of each well was read with a Titertek Multiskan (310C) spectrophotometer at 570 nm. […]

MDAY-D2 cells = test: viability of MDAY-D2 cells; format: cell-based, mouse; conditions: 0-50 μM, 48 hours
Protocol: Fos and jun activity are also required for cellular proliferation in many tumor cell lines. Accordingly, the effect of orthovanadate on adherent cells and cell suspensions were examined. MDAY-D2 (a mouse lymphoid cell line grown in suspension) and HTB14 cells (an adherent human primary astrocytoma cell line) were incubated in media containing 0-50 μM orthovanadate for 48 hours. The cells were harvested and the number of viable cells determined.
Three different forms of vanadyl compounds were examined for their effect on viability of cancer cell lines. MDAY-D2 cells were incubated in media containing 0-50 μM orthovanadate, vanadyl sulphate, or vanadyl hydroperoxide for 48 hours. The cells were harvested and the number of viable cells determined. […] Although there were slight differences in sensitivity, the overall cell death was similar.

In the case of `Cc1occc(=O)c1[O-].Cc1occc(=O)c1[O-].[O]=[V+2]` [BMOV, bis(methylmaltolato) oxovanadium (IV)], the “percent inhibition of stromelysin gene expression” value (stromelysin) is reported as 58%.

`[Na+].[Na+].[Na+].[O]=[V]([O-])([O-])[O-]` [orthovanadate, sodium orthovanadate] was tested, and the “inhibition of IL 1, PMA and AA induced c-jun expression” value (jun) was “completely inhibited”, the IC50 (A431) was 7.6 µM and the “toxicity to MDAY-D2 cells” value (MDAY-D2 cells) was “toxic”. The “killing of MDAY-D2 cells” value (MDAY-D2 cells; three forms compared) was “equally effective”.

From US5871779A, “Treatment of arthropathies with vanadate compounds or analogues thereof” (Mount Sinai Hospital Corporation, priority 1996, dated 1999)
